Bounds are passed on as bounds.

For experiment [1], the target named is ligand binding domain of human FXR (Homo sapiens (Human), UniProt Q96RI1). The experiment can be described thus: FXR ligand binding assay (LanthaScreen FRET). The note with it: for Emax: read-out: % Efficacy. A general note: In TR-FRET formats the signal depends on donor and acceptor labels being close together.
Experimental: The affinity of FXR ligands for the ligand binding domain of FXR was determined using a commercially available human FXR ligand binding assay (LanthaScreen, Thermofisher Cat #PV4833). […] Binding of FXR ligands to the FXR ligand binding domain promotes binding of the fluorescein-labelled SRC2-2 peptide. This causes a FRET signal between the terbium-labelled anti-GST antibody and the fluorescein-labelled SRC peptide which are both bound to the FXR ligand binding domain.
Test compounds are dissolved in DMSO and a 3-fold serial dilution series is generated, then further diluted into assay buffer. The compounds are mixed with 5 nM GST-tagged FXR ligand binding domain, 5 nM Tb-labelled anti-GST antibody and 500 nM fluorescein-labelled SRC2-2 peptide in a pH 7.4 buffer. The reaction is incubated at room temperature for 1 hour, then the FRET signal is measured as the ratio of the 520 nm/495 nm emission following excitation at 340 nm. The change in FRET signal is plotted against the test article concentration and fit to a 3-parameter logistical equation.
The target in experiment [2] is human Famesoid X receptor ligand-binding domain/Gal4 DNA binding domain chimera (Homo sapiens (Human), UniProt Q96RI1). In words: Cellular FXR beta-lactamase reporter assay (FXR-UAS-bla HEK 293T). The experiment is classed as cell-based. The conditions noted are these: for Emax: HEK-293T, read-out: % Efficacy; for EC50: read-out: FXR pEC50 (converted); for % Efficacy: extent of activation relative to GW4064. As to the method: FXR activation was measured using a cell line and procedure obtained from Life Technologies (Cat #K1691). FXR-UAS-&/a HEK 293T cells contain a human Famesoid X receptor ligand-binding domain/Gal4 DNA binding domain chimera stably integrated into the CellSensor® UAS-bla HEK293T cell line. The CellSensor® UAS-bla HEK293T contains a beta-lactamase reporter gene under control of a UAS response element stably integrated into HEK 293T cells. Activation of FXR by bound ligands results in transcriptional activation of the beta-lactamase reporter gene, which is detected via assay of beta-lactamase activity.
Cells are harvested and diluted into assay medium containing phenol red-free DMEM supplemented with 2% Charcoal-stripped FBS, pyruvate, non-essential amino acids. Cells are then transferred to a 384 well assay plate. Test compounds are dissolved in DMSO and a 3-fold serial dilution series is generated, then further diluted into assay medium. Compounds in assay medium are added to cells in the 384 well plate and allowed to incubate 16 h at 37 C in the presence of 5% CO2.
A FRET-based […] (CCF4) is loaded into cells as its acetomethoxy ester. Intracellular esterases liberate free CCF4, a cephalosporin core linking 7-hydroxycoumarin to fluorescein. In the presence of beta-lactamase activity produced in the presence of FXR agonists, cleavage of CCF4 spatially separates the two dyes and disrupts FRET, so that exciting the coumarin at 409 nm now produces a blue fluorescence signal at 447 nm. The change in FRET signal is plotted against the test compound concentration and fit to a 3-parameter logistical equation.

Chain of human Famesoid X receptor ligand-binding domain/Gal4 DNA binding domain chimera (Q96RI1 262-486, stated change not applied): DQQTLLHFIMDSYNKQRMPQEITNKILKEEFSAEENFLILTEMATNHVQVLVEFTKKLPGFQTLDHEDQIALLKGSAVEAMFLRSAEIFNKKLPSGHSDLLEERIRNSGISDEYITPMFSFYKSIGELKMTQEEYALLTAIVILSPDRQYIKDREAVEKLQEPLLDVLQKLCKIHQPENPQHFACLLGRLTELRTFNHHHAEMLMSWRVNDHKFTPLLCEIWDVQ
Chain of ligand binding domain of human FXR (Q96RI1 262-486): as the sequence (Q96RI1 262-486, stated change not applied) above

As to “2-[(1R,3S,5S)-3-(5-cyclopropyl-3-{4-methoxybicyclo[2.2.2]octan-1-yl}-1,2-oxazole-4-carbonyloxy)-8-azabicyclo[3.2.1]octan-8-yl]-4-(trifluoromethoxy)-1,3-benzothiazole-6-carboxylic acid [Compound I-58]”, in experiment [1] (extent of activation relative to GW4064), the “% Efficacy” value stood at 22%. Further, the “FXR pEC50” value in experiment [1] (pEC50 = −log EC50, FRET signal, SRC2-2 peptide) is above 4.4; in experiment [2] (pEC50 = −log EC50, 16 h incubation), above 4.5.
With `CC(C)(C)c1onc(-c2c(Cl)cccc2Cl)c1C(=O)OC1C[C@H]2CC[C@@H](C1)N2c1nc2c(F)cc(C(=O)O)cc2s1` (single isomer, unassigned) [Compound I-25], the Emax in experiment [1] stood at 56%. In addition, in experiment [2], the Emax turned out to be 100% and the EC50 was 25.1 nM.
As for `CC1(c2onc(-c3c(Cl)cccc3Cl)c2C(=O)OC2C[C@H]3CC[C@@H](C2)N3c2nc3c(F)cc(C(=O)O)cc3s2)CC1` (single isomer, unassigned) [Compound I-26], in experiment [1], the Emax came out at 75%. For the same compound, in experiment [2], the Emax came to 106% and the EC50 is 31.6 nM.
On the same counts, the results for `O=C(O)c1cc(F)c2nc(N3[C@@H]4CC[C@H]3C[C@@H](OC(=O)c3c(-c5ccccc5)noc3C3CC3)C4)sc2c1` [Compound I-13, 2-[(1R,3R,5S)-3-(5-Cyclopropyl-3-phenyl-1,2-oxazole-4-carbonyloxy)-8-azabicyclo[3.2.1]octan-8-yl]-4-fluoro-1,3-benzothiazole-6-carboxylic acid] are 40%, 93% and 1000 nM.
Consider `O=C(O)c1cc(F)c2nc(N3[C@@H]4CC[C@H]3C[C@@H](OC(=O)c3c(-c5ccccc5OC(F)(F)F)noc3C3CC3)C4)sc2c1` [Compound I-14, 2-[(1R,3R,5S)-3-{5-cyclopropyl-3-[2-(trifluoromethoxy)phenyl]-1,2-oxazole-4-carbonyloxy}-8-azabicyclo[3.2.1]octan-8-yl]-4-fluoro-1,3-benzothiazole-6-carboxylic acid], for which the Emax in experiment [1] was 147%. Besides, in experiment [2], the Emax came out at 116% and the EC50 is 7.94 nM.
In the same order, the values of `O=C(O)c1cc(F)c2nc(N3[C@@H]4CC[C@H]3C[C@@H](OC(=O)c3c(-c5c(Cl)cccc5OC(F)F)noc3C3CC3)C4)sc2c1` [Compound I-15, 2-[(1R,3R,5S)-3-{3-[2-chloro-6-(difluoromethoxy)phenyl]-5-cyclopropyl-1,2-oxazole-4-carbonyloxy}-8-azabicyclo[3.2.1]octan-8-yl]-4-fluoro-1,3-benzothiazole-6-carboxylic acid] are 71%, 108% and 39.8 nM.
With `O=C(O)c1cc(F)c2nc(N3[C@@H]4CC[C@H]3C[C@@H](OC(=O)c3c(C56CCC(CC5)CC6)noc3C3CC3)C4)sc2c1` [Compound I-20, 2-[(1R,3R,5S)-3-(3-{Bicyclo[2.2.2]octan-1-yl}-5-cyclopropyl-1,2-oxazole-4-carbonyloxy)-8-azabicyclo[3.2.1]octan-8-yl]-4-fluoro-1,3-benzothiazole-6-carboxylic acid], the “% Efficacy” value in experiment [2] was determined as 22%.
Take `Cn1c(N2[C@@H]3CC[C@H]2C[C@@H](OC(=O)c2c(-c4c(Cl)cccc4Cl)noc2C2CC2)C3)nc2c(F)cc(C(=O)O)cc21` [Compound I-31, 2-[(1R,3R,5S)-3-[5-cyclopropyl-3-(2,6-dichlorophenyl)-1,2-oxazole-4-carbonyloxy]-8-azabicyclo[3.2.1]octan-8-yl]-4-fluoro-1-methyl-1H-1,3-benzodiazole-6-carboxylic acid]: in experiment [2], the Emax is 100% and the EC50 was 398 nM.
Turning to `O=C(NS(=O)(=O)C1CC1)c1ccc(N2[C@@H]3CC[C@H]2C[C@H](OC(=O)c2c(-c4c(Cl)cccc4Cl)noc2C2CC2)C3)cc1` [Compound I-48, (1R,3S,5S)-8-{4-[(cyclopropanesulfonyl)carbamoyl]phenyl}-8-azabicyclo[3.2.1]octan-3-yl 5-cyclopropyl-3-(2,6-dichlorophenyl)-1,2-oxazole-4-carboxylate], in experiment [2], the “% Efficacy” value amounted to 130%.
